From patent publication US20100115666A1, “Transcriptional Repressors of Cytokinin Signaling and Their Use” (FREIE UNIVERSITÄT BERLIN, priority 2006, published 2010) come the findings set out here.

For one experiment, the system named is detached leaves. Kind of experiment: Chlorophyll retention assay in detached leaves. The class given is in vivo, Arabidopsis thaliana. Conditions: wild type leaves, 0.1 μM BA, 10 d dark. The protocol:
(b) Quantification of chlorophyll retention by cytokinin. […] Three independent plates with five leaves per plate were examined for each concentration. Two chlorophyll measurements were taken per plate. The chlorophyll content was determined spectrophotometrically as described in Example 3.5. Error bars represent SD (n=15). The chlorophyll retention assay was performed as described by ([…] et al., 2006). Either the sixth or the seventh leaf was detached from 24-days-old in vitro grown seedlings and floated on distilled water supplemented with 0, 0.01, 0.1, 0.5, 1.0 or 5.0 μM BA in 0.1% DMSO in small Petri dishes for 10 d at RT in the dark. Three replicates of each genotype, each consisting of five leaves were taken for measurement. Chlorophyll was extracted with methanol for 24 h in the dark. The amount of chlorophyll was measured with a spectrophotometer, normalized to fresh weight, and the chlorophyll content was calculated as described (Porra et al., 1989).

In the next experiment the test system is Arabidopsis seedlings. Kind of experiment: Cytokinin sensitivity of roots (root elongation, lateral root formation). The experiment is classed as in vivo, Arabidopsis thaliana. The protocol: ([…] plants are less sensitive to cytokinin inhibition of root elongation. Root elongation was measured for each line between 4 and 9 DAG. The root elongation of each line is expressed as percentage of its DMSO control. Results shown for each line represent means from at least three independent replicates. ([…] plants are less sensitive to cytokinin inhibition of lateral root formation. The number of lateral roots was determined 9 DAG. Error bars represent SD (n>15). Arabidopsis seeds were grown on vertical plates containing different concentration of BA ranging from 0.01 μM to 1.0 mM. 0.1% dimethyl sulfoxide (DMSO) was included as vehicle control. The primary root lengths were marked on day four and nine after germination. Photographs were taken with a digital camera (Nikon Coolpix 8800) and root lengths were determined using Scion Image program version beta 4.02 (www.scioncorp.com). The number of lateral roots emerging from the epidermis of the primary root was counted under a microscope […]. The experiments were performed using three independent replicates and 15 seedlings in each replicate. To investigate the cytokinin response in roots, seedlings of wild type and the 35[…] lines were grown on media containing increasing amounts of cytokinin. […] The relative difference in root length increased with increasing cytokinin concentrations (FIG. 7a). […]

The subject of another experiment is ARR6:GUS reporter gene. Kind of experiment: Protoplast transactivation assay (ARR6:GUS reporter). The experiment is classed as cell-based, Arabidopsis.

Protocol for ARR6:GUS reporter gene: The ARR6:GUS reporter construct and a 35S:GUS construct without any effector plasmid were used as controls. Protoplasts were co-transfected with the ARR6:GUS reporter and an effector plasmid expressing ARR1, ARR1-SRDX or both effector plasmids simultaneously. […] Variations in transformation efficiencies were normalized by using a 35S:NAN reporter gene construct. The mean values and SD of four independent transfection assays were calculated and shown as relative GUS/NAN activity units.
Protoplast isolation and transformation was carried out according to the method described by Hwang and Sheen (Hwang and Sheen, 2001). For isolation of mesophyll protoplasts 4-5 weeks old rosette leaves were used. Transformation of protoplasts was mediated by 40% PEG solution. […] For the transactivation assays, 9 μg of the ARR6: GUS reporter plasmid and 14 μg of each effector plasmid carrying 35S:ARR1 and 35S:ARR1-SRDX were used. For normalization 3 μg of a plasmid harboring the 35S:NAN gene (Kirby and Kavanagh, 2002) was added. Both GUS and NAN enzyme assays were performed according to Kirbay and Kavanagh (Kirby and Kavanagh, 2002). The ratios of GUS and NAN activities were calculated as relative GUS/NAN activity units.

With `c1ccc(CNc2ncnc3[nH]cnc23)cc1` [BA], the chlorophyll retention entry in the experiment with detached leaves is given as “strongly increased chlorophyll retention”. Further, the “root length reduction compared to control” value with Arabidopsis seedlings (wild type plants, 1 μM BA) amounted to 75%. In the experiment on Arabidopsis seedlings (wild type, 0.1 μM BA), the lateral root formation result was “unable to produce lateral roots”.
As to `C/C(=C\CNc1ncnc2nc[nH]c12)CO` [cytokinin, trans-zeatin], the “induction of the reporter gene expression compared to the non-induced condition” value in the experiment with ARR6:GUS reporter gene (ARR6:GUS reporter without effector, 500 nM trans-zeatin, 16 h) is on record as “more than threefold induction”. The “further increase of the GUS activity on addition of cytokinin” value in the experiment with ARR6:GUS reporter gene (with 35S:ARR1 effector, 500 nM trans-zeatin) was “twofold increase”.

B1: ARR1: Arabidopsis thaliana B-type response regulator ARR1 (SEQ ID NO: 12), expressed under the 35S promoter (protein, listed as Arabidopsis thaliana)
chain: MMNPSHGRGLGSAGGSSSGRNQGGGGETVVEMFPSGLRVLVVDDDPTCLMILERMLRTCLYEVTKCNRAEMALSLLRKNKHGFDIVISDVHMPDMDGFKLLEHVGLEMDLPVIMMSADDSKSVVLKGVTHGAVDYLIKPVRMEALKNIWQHVVRKRRSEWSVPEHSGSIEETGERQQQQHRGGGGGAAVSGGEDAVDDNSSSVNEGNNWRSSSRKRKDEEGEEQGDDKDEDASNLKKPRVVWSVELHQQFVAAVNQLGVEKAVPKKILELMNVPGLTRENVASHLQKYRIYLRRLGGVSQHQGNLNNSFMTGQDASFGPLSTLNGFDLQALAVTGQLPAQSLAQLQAAGLGRPAMVSKSGLPVSSIVDERSIFSFDNTKTRFGEGLGHHGQQPQQQPQMNLLHGVPTGLQQQLPMGNRMSIQQQIAAVRAGNSVQNNGMLMPLAGQQSLPRGPPPMLTSSQSSIRQPMLSNRISERSGFSGRNNIPESSRVLPTSYTNLTTQHSSSSMPYNNFQPELPVNSFPLASAPGISVPVRKATSYQEEVNSSEAGFTTPSYDMFTTRQNDWDLRNIGIAFDSHQDSESAAFSASEAYSSSSMSRHNTTVAATEHGRNHQQPPSGMVQHHQVYADGNGGSVRVKSERVATDTATMAFHEQYSNQEDLMSALLKQV
In the case of B1, the GUS activity result in the experiment on ARR6:GUS reporter gene (co-transfection with ARR1 under 35S promoter, absence of cytokinin) is listed as “strong increase in GUS activity”.
